Laboratory results as given in patent publication US20150315153A1, “NOVEL SULFONIC ACID DERIVATIVE COMPOUND, PHOTOACID GENERATOR, CATIONIC POLYMERIZATION INITIATOR, RESIST COMPOSITION, AND CATIONICALLY POLYMERIZABLE COMPOSITION” (ADEKA CORPORATION, priority 2012, published 2015).

Experiments:
[1] = UV absorption spectrum in acetonitrile; type: physicochemical; settings: for Maximum absorption wavelength: absorption in a range of 300 nm to 400 nm; for ε at maximum absorption wavelength (molar extinction coefficient): second line of the cell
Method: (§1) Compound Nos. 4, 5, 7, 10, 20, 6, 35, 38 and 40 and Comparative Compound 1 represented by the Formula below were each dissolved in acetonitrile, and their absorption spectra were measured using a […] U-3010 to determine the values of ?max and (molar extinction coefficient) for absorption in a range of 300 nm to 400 nm as well as the value of ε at 365 nm. […] As for the solubility, the concentration of each compound was increased by 1%-by-mass increments and the concentration at which no compound was left undissolved was determined and, in the results shown in Table 4, the solubility is indicated in terms of this concentration.

[2] = Solubility to propylene glycol monomethyl ether acetate at 25° C.; type: physicochemical; settings: for Solubility: concentration at which no compound was left undissolved; for solubility, ranking among compounds grouped by sulfonate moiety: among Compound Nos. 4, 5, 7 and 10, among Compound Nos. 6, 38 and 40
Method: as §1

[3] = Weight loss starting point (thermal analysis); type: physicochemical
[4] = propylene glycol monomethyl ether acetate, 25° C.

| SMILES | ε at 365 nm [1] | Maximum absorption wavelength [1] | ε at maximum absorption wavelength (molar extinction coefficient) [1] | Solubility [2, 4] | Weight loss starting point [3] | melting point | solubility, ranking among compounds grouped by sulfonate moiety [2] | solubility (in words) [2, 4] | solubility, comparison between Compound Nos. 4 and 20 (different Xs) [2, 4] |
| --- | --- | --- | --- | --- | --- | --- | --- | --- | --- |
| CCc1ccc2c3c(cccc13)C(=O)N(OS(=O)(=O)C(F)(F)F)C2=O [Compound No. 20] | 9.95 × 10^3 | 344 nm | 1.64 × 10^4 | 5 % by mass | 253 °C | 145 °C | – | – | – |
| CCCCC(CC)Cc1ccc2c3c(cccc13)C(=O)N(OS(=O)(=O)c1ccc(C)cc1)C2=O (centres unmarked) [Compound No. 38] | 1.24 × 10^4 | 345 nm | 1.76 × 10^4 | 1.6 % by mass | 304.9 °C | 129.6 °C | – | – | – |
| CCCCc1ccc2c3c(cccc13)C(=O)N(OS(=O)(=O)CC13CCC(CC1=O)C3(C)C)C2=O (centres unmarked) [Compound No. 10] | 1.17 × 10^4 | 346 nm | 1.68 × 10^4 | 5 % by mass | 279 °C | 134 °C | – | – | – |
| CCCCCCCCCCCCCCc1ccc2c3c(cccc13)C(=O)N(OS(=O)(=O)c1ccc(C)cc1)C2=O [Compound No. 40] | 1.05 × 10^4 | 344.5 nm | 1.68 × 10^4 | 1.9 % by mass | 301.8 °C | 95.5 °C | – | – | – |
| CC1(C)C2CCC1(CS(=O)(=O)ON1C(=O)c3cccc4cccc(c34)C1=O)C(=O)C2 (centres unmarked) [Comparative Compound 1, reference compound] | 6.48 × 10^2 | 335 nm | 1.34 × 10^4 | 2 % by mass | – | – | – | – | – |
| CCCCc1ccc2c3c(cccc13)C(=O)N(OS(=O)(=O)c1ccc(C(F)(F)F)cc1)C2=O [Compound No. 35] | 1.11 × 10^4 | 345.0 nm | 1.68 × 10^4 | 2.0 % by mass | 302 °C | 192 °C | – | – | – |
| CCCCc1ccc2c3c(cccc13)C(=O)N(OS(=O)(=O)c1c(C(C)C)cc(C(C)C)cc1C(C)C)C2=O [Compound No. 7] | 1.06 × 10^4 | 344 nm | 1.65 × 10^4 | 5 % by mass | 267 °C | 131 °C | – | – | – |
| CCCCc1ccc2c3c(cccc13)C(=O)N(OS(=O)(=O)C(F)(F)F)C2=O [Compound No. 4] | 1.16 × 10^4 | 346 nm | 1.65 × 10^4 | 20 % by mass | 250 °C | 110 °C | highest solubility | high solubility | higher solubility |
| CCCCc1ccc2c3c(cccc13)C(=O)N(OS(=O)(=O)c1ccc(C)cc1)C2=O [Compound No. 6] | 1.02 × 10^4 | 343.5 nm | 1.67 × 10^4 | 2.3 % by mass | 314.8 °C | 145.1 °C | highest solubility | – | – |
